From article PMC11818404, “Experimental and Computational Investigation of the Target and Mechanisms of Gelsemium Alkaloids in the Central Nervous System” (International Journal of Molecular Sciences, 2025)
Where two headings read alike, the source gives them in different places.

What was measured:
GlyR = settings: read-out: IC50 for GlyR; cited from earlier work
α1 GlyR = biological target: T1, α1 GlyR (Homo sapiens, UniProt P23415); test: Whole-cell patch-clamp of glycine-evoked currents, transfected HEK293 cells; assay type: cell-based; settings: for activity on GlyR currents (in words): GlyRs (α1 and α1β), single concentration 300 µM; for percentage change in peak current modulation: alkaloid 300 µM co-applied with subsaturated glycine, mean ± SE
T1 construct: expressed in transfected cells; host or cells: HEK293
T1 sequence (P23415 29-449 isoform P23415-2 limits assumed): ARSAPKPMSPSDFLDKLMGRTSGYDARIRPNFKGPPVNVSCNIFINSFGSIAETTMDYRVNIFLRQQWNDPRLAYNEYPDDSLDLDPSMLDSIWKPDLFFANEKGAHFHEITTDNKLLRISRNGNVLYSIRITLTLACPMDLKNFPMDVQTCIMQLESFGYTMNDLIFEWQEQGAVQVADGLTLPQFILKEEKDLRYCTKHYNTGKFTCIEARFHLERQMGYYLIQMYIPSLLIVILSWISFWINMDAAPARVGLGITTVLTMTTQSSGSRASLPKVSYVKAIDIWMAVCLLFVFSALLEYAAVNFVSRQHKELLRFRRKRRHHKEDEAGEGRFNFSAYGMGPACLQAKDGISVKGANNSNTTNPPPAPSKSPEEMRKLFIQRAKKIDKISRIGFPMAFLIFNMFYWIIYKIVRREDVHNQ
Protocol: (§1) HEK293 cells were obtained from Beijing Aisiyipu Biotechnology Co. Cells were cultured in Dulbecco’s Modified Eagle Medium containing 10% fetal bovine serum, 800 µg/mL G418, 200 µg/mL hygromycin B, and 100 µg/mL Zeocin at 37 °C and 5% CO2. Cells were transfected with plasmids encoding the following proteins: (i). nAChRα7 (CHRNA7, NM_000746; RIC3, NM_024557), (ii) GABA-α1 (NM_000806), GABA-β2 (NM_021911), and GABA-γ2 (NM_198904), and (iii) GlyR α1 (NM_000171) and GlyR β (NM_000824). To obtain β-containing GlyRs, an α/β transfection ratio of 1:5 was used; for γ2-containing GABAARs, the ratio was 1:2:5 of α/β/γ2.
(§2) For whole-cell recording, the […] contained 140 mM NaCl, 3.5 mM KCl, 1 mM MgCl2•6H2O, 2 mM CaCl2•2H2O, 10 mM D-glucose, 10 mM HEPES, and 1.25 mM NaH2PO4•2H2O, (pH 7.4). The […] solution contained 50 mM CsCl, 10 mM NaCl, 10 mM HEPES, 60 mM CsF, and 20 mM EGTA (pH 7.2). Briefly, during the diaphragm clamp operation, the glass capillary was drawn into a recording electrode using a microelectrode puller. Subsequently, the electrode filled with intracellular fluid was loaded into the microelectrode holder, and the cell-lined coverslip was placed in the recording bath under an inverted microscope, followed by manipulation of the microelectrode manipulator to immerse the electrode into the extracellular fluid under an inverted microscope. Electrode resistance (Rpip) was recorded, and the electrode was gently positioned on the cell surface with negative pressure applied to establish a GΩ-level high-resistance seal. Fast capacitance compensation was performed, followed by additional suction to breach the cell membrane and form a whole-cell recording. Finally, slow capacitance compensation was performed, and experimental parameters such as series resistance (Rs) were recorded. Leakage compensation was not provided. Whole-cell patch-clamp recordings were performed at −70 mV using HEKA EPC-10 (HEKA Elektronik GmbH, Reutlingen, Germany) amplifiers. Data acquisition was performed using the HEKA PatchMaster. We aimed to study the allosteric regulation of GABAAR and GlyR by Gelsemium alkaloids, so the effects of the alkaloids on Gly- or GABA-evoked currents were determined via co-application of subsaturated agonist concentrations (EC10 and EC50) together with the alkaloid. The EC50 for α1 GlyR was 30 µM, whereas the EC10 for α1β2γ2 GABAAR was 3.0 µM. The choice of specific agonist concentration was determined based on previous studies. We first examined the effects of each Gelsemium alkaloid at a concentration of 300 µM on channel currents. The peak receptor currents for subsaturated concentrations of specific agonists and the peak receptor currents after administration of each drug were recorded, and the modulation percentage was calculated for each drug. The modulation percentage was calculated using Equation (1):Percentage change = ((Ialkaloid − Iagonist)/Iagonist),(1) where Ialkaloid denotes the current in the presence of a given concentration of alkaloid, and Iagonist denotes the amplitude of the control glycine or GABA current elicited by the activation of a given receptor. To construct the concentration-response curve, six graded concentrations (1 µM, 3 µM, 10 µM, 30 µM, 100 µM, and 300 µM) of each Gelsemium alkaloid were tested. The concentration-response curve parameters for alkaloid inhibition were obtained from the curve of the normalized concentration-response data points fitted using Equation (2):Iagonist = Imax (agonist)nH/((agonist)nH + (EC50) nH), (2) where Iagonist is the current in the presence of a given subsaturated concentration of GABA, and EC50 is the concentration required for the half-maximal response. Each drug was repeated four times per concentration, and the data were expressed as the mean ± SE All electrophysiological tests performed at 20 °C.

α1β GlyR = biological target: T2, α1β GlyR (Homo sapiens, UniProt P23415); test: as above; assay type: cell-based; settings: α1βGlyR; alkaloid 300 µM co-applied with subsaturated glycine; mean ± SE
T2 construct: expressed in transfected cells; host or cells: HEK293
T2 sequence (P48167 23-497 partner, one chain of several): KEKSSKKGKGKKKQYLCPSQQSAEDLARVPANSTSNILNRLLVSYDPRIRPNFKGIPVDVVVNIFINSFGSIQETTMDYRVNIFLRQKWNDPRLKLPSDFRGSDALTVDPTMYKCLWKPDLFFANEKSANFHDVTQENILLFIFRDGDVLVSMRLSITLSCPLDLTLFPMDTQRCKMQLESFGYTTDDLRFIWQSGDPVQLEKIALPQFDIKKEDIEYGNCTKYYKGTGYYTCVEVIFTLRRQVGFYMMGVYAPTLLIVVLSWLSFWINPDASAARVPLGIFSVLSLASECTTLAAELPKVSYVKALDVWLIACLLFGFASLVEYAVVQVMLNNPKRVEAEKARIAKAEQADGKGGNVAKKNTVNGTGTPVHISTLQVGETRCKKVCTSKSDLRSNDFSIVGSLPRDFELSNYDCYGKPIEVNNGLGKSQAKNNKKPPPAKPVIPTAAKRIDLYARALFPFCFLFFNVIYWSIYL
Protocol: as §1, §2

α1β2γ2 GABAAR = biological target: T3, α1β2γ2 GABAAR (Homo sapiens, UniProt P14867+P18507+P47870); test: Whole-cell patch-clamp of GABA-evoked currents, transfected HEK293 cells; assay type: cell-based; settings: for Hillslope: GABAAR concentration-response curve; for percentage change in peak current modulation / IC50: GABAAR; for percentage change in peak current modulation: alkaloid 300 µM co-applied with subsaturated GABA, mean ± SE; for IC50: reduction of GABA-evoked current, n = 4
T3 construct: expressed in transfected cells; host or cells: HEK293
T3 sequence (P18507 40-475): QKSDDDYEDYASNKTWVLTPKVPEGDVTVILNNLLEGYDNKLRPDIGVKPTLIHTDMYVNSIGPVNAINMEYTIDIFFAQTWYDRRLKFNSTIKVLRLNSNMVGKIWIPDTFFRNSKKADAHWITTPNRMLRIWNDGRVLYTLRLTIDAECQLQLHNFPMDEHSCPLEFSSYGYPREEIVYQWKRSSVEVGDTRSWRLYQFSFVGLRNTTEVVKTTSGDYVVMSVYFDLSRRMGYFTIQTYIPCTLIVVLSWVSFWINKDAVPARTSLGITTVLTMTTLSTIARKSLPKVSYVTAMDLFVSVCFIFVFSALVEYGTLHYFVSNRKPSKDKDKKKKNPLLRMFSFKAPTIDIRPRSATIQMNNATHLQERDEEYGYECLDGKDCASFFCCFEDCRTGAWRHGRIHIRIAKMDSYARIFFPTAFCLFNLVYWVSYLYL
T3 sequence (P14867 28-456): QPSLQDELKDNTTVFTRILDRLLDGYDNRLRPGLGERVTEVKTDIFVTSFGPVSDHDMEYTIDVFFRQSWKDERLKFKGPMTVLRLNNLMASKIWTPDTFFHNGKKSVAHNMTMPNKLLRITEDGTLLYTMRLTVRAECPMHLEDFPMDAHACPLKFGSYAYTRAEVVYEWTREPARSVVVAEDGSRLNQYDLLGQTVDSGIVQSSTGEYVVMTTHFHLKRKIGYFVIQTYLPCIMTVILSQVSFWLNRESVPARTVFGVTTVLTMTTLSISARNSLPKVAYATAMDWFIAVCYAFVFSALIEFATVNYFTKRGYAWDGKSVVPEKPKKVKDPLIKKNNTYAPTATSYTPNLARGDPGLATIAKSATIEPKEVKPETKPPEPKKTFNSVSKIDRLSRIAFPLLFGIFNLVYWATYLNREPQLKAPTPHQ
T3 sequence (P47870 26-512): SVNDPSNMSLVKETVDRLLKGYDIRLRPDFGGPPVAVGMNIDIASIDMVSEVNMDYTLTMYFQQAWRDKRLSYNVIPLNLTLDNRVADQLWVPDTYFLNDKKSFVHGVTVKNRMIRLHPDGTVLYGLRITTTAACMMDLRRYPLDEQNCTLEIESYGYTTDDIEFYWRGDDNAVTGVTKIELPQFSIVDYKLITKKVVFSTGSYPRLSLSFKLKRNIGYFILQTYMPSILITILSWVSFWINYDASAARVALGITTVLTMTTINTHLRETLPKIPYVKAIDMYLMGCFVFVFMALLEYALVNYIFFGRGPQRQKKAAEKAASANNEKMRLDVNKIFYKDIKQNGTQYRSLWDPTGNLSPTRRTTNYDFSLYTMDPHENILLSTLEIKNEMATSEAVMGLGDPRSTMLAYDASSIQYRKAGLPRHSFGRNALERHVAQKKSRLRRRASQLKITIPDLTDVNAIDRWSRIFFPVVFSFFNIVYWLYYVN

nAChRα7 = biological target: T4, nAChRα7 (Homo sapiens, UniProt P36544); test: Whole-cell patch-clamp of acetylcholine ion channel currents, transfected HEK293 cells; assay type: cell-based; settings: nACHR; alkaloid 300 µM; mean ± SE
T4 construct: expressed in transfected cells; host or cells: HEK293
T4 sequence (P36544 23-502): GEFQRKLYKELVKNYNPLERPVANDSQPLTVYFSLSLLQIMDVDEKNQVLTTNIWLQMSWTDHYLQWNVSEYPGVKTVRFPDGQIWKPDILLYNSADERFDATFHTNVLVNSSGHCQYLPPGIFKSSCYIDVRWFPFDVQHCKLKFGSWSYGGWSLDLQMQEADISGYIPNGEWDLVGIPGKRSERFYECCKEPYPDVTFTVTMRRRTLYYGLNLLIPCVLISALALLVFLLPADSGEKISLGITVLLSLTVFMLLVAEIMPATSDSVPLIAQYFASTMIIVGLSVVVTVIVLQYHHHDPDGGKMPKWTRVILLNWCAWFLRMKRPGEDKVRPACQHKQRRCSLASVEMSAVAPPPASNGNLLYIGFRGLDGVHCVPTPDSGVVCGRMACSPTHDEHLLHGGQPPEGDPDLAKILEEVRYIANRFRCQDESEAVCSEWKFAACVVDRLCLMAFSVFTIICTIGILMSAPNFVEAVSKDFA
Protocol: as §1
For whole-cell recording, the […] contained 140 mM NaCl, 3.5 mM KCl, 1 mM MgCl2•6H2O, 2 mM CaCl2•2H2O, 10 mM D-glucose, 10 mM HEPES, and 1.25 mM NaH2PO4•2H2O, (pH 7.4). […] Electrode resistance (Rpip) was recorded, and the electrode was gently positioned on the cell surface with negative pressure applied to establish a GΩ-level high-resistance seal. […] Finally, slow capacitance compensation was performed, and experimental parameters such as series resistance (Rs) were recorded. […] We aimed to study the allosteric regulation of GABAAR and GlyR by Gelsemium alkaloids, so the effects of the alkaloids on Gly- or GABA-evoked currents were determined via co-application of subsaturated agonist concentrations (EC10 and EC50) together with the alkaloid. […]

GABAAR = system: GABAAR; parameters: method as in PMID 32541553, PMID 32391682; settings: read-out: EC50 for positive allosteric modulation of GABAAR; cited from earlier work
[1] = α1GlyR, reduction of glycine-evoked current, n = 4, read-out: IC50

| Molecule | IC50 (GlyR) | activity on GlyR currents (in words) (α1 GlyR) | percentage change in peak current modulation (α1 GlyR; α1GlyR) | percentage change in peak current modulation (α1β GlyR) | EC50 (α1β2γ2 GABAAR) | Hillslope (α1β2γ2 GABAAR) | percentage change in peak current modulation (α1β2γ2 GABAAR) | IC50 (α1 GlyR; [1]) | percentage change in peak current modulation (nAChRα7) | IC50 (α1β2γ2 GABAAR) | IC50 (α1 GlyR) | EC50 (GABAAR) |
| --- | --- | --- | --- | --- | --- | --- | --- | --- | --- | --- | --- | --- |
| O=C1C[C@@H]2OCC=C3CN4CC[C@]56c7ccccc7N1[C@H]5[C@H]2[C@H]3C[C@H]46 [strychnine] | ~0.18 µM |  |  |  |  |  |  |  |  |  |  |  |
| CCC1=N[C@H]2C[C@@]3(C(=O)N(OC)c4ccccc43)[C@H]3C[C@@H]1[C@@H]2CO3 [Gelsenicine, gelsenicine] |  | minimal effect | −13.64% ± 4.34% | −10.44% ± 5.99% | 192 µM | 0.8002 | 58.63% ± 5.56% |  |  |  |  |  |
| C=C[C@]12CN(C)[C@@H]3[C@H]4CO[C@H](C[C@H]41)[C@]1(C(=O)N(OC)c4ccccc41)[C@@H]32 [Gelsevirine, gelsevirine] |  | strong activity | −98.89% ± 0.68% | −99.06% ± 0.62% |  | −1.110 | −55.82% ± 0.35% | 82.9 µM | 0.75% ± 0.65% | 252 µM |  |  |
| humantenirine |  | minimal effect | −11.75% ± 4.34% | −16.82% ± 4.41% |  |  | 41.66% ± 0.53% |  |  |  |  |  |
| C=C[C@]12CN(C)[C@@H]3[C@H]4CO[C@H](C[C@H]41)[C@]1(C(=O)Nc4ccccc41)[C@@H]32 [Gelsemine, gelsemine] |  | strong activity | −70.39% ± 4.85% | −92.18% ± 2.87% |  | −0.9158 | −58.78% ± 1.74% |  |  | 171 µM | 10.4 µM |  |
| C=C[C@@]12CN(C)[C@H]3C[C@]14C(=Nc1ccccc14)[C@H]1C[C@@H]2[C@@H]3CO1 [Koumine, koumine] |  | strong activity | −95.53% ± 0.70% | −87.29% ± 0.52% |  |  |  | 9.59 µM | 1.42% ± 0.00% |  |  |  |
| CN1C(=O)CN=C(c2ccccc2)c2cc(Cl)ccc21 [diazepam] |  |  |  |  |  |  |  |  |  |  |  | ~0.005 µM |
